Measurements published in patent publication USRE47739E1, “2-(pyridin-2-ylamino)-pyrido[2,3-D]pyrimidin-7-ones” (Warner-Lambert Company LLC, priority 2002, dated 2019).
Counter-ions that a name gives are not always drawn.

Columns and labels:
Cdk4/Cyclin D = Cdk4/Cyclin D (Homo sapiens, UniProt P11802); experiment: Assay for Inhibition of Cdk4/Cyclin D; format: biochemical; settings: 25 μM ATP, retinoblastoma protein substrate, 25° C., 15 minutes
Method: (§1) The assays were carried out as described below.
Assay for Inhibition of Cdk4/Cyclin D
The Cdk4 enzyme assay for IC50 determination and kinetic evaluation is performed as follows. 96-well filter plates (Millipore MADVN6550) are used. […] Buffer A containing excess EDTA was used to determine the level of background ^32P in the absence of enzyme activity. All components except the ATP are added to the wells, and the plate is placed on a plate mixer for 2 minutes. The reaction is started by adding [^32P]ATP, and the plate is incubated at 25° C. for 15 minutes. The reaction is terminated by addition of 0.1 mL 20% trichloroacetic acid (TCA). The plate is kept at 4° C. for at least 1 hour to allow the substrate to precipitate. The wells are then washed five times with 0.2 mL 10% TCA, and ^32P incorporation is determined with a beta plate counter (Wallac Inc., Gaithersburg, Md.).

[1] = biological target: FGF receptor (FGFr) tyrosine kinase (Homo sapiens, UniProt P11362); experiment: Assay for Inhibition of FGFr; format: biochemical; settings: 50 μM ATP, Poly (4:1) glutamate-tyrosine substrate, 25° C.
Chain of FGF receptor (FGFr) tyrosine kinase (P11362 22-822): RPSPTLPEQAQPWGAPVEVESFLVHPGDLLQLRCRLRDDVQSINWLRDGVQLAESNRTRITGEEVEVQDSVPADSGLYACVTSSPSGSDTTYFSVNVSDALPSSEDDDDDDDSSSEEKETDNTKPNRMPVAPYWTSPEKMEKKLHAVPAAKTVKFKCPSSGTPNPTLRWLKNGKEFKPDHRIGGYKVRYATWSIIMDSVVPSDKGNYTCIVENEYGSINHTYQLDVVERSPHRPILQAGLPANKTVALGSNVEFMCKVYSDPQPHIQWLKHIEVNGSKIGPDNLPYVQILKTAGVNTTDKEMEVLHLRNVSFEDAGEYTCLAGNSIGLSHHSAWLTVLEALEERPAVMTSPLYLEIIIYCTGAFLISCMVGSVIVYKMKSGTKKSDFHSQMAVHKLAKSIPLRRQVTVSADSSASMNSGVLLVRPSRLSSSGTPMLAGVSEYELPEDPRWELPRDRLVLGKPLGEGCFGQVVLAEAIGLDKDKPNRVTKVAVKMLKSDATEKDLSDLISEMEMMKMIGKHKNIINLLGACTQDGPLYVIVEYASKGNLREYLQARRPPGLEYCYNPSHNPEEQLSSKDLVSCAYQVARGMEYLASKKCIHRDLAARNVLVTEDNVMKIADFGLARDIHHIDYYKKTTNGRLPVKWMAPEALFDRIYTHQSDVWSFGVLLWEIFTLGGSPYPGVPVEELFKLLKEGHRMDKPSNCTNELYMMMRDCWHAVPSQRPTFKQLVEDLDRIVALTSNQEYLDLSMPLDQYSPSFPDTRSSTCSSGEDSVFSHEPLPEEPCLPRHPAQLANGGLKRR
Method: as §1
Assay for Inhibition of FGFr
For FGF receptor (FGFr) tyrosine kinase assays 96-well plates (100 μL/incubation/well), and conditions are optimized to measure the incorporation of ^32P from [γ^32P]ATP into a glutamate-tyrosine co-polymer substrate. Briefly, to each well is added 82.5 μL incubation buffer B (25 mM Hepes (pH 7.0), 150 mM NaCl, 0.1% Triton X-100, 0.2 mM PMSF, 0.2 mM Na3VO4, 10 mM MnCl2) and 750 μg/mL Poly (4:1) glutamate-tyrosine followed by 2.5 μL of the test compound in buffer B and 5 μL of a 7.5 μg/μL FGFr solution to initiate the reaction. Following a 10-minute incubation at 25° C., […] [γ^32P]ATP (0.4 μCi plus 50 μM ATP) is added to each well, and samples are incubated for an additional 10 minutes at 25° C. The reaction is terminated by the addition of 100 μL 30% trichloroacetic acid (TCA) containing 20 mM sodium pyrophosphate and precipitation of material onto glass fiber mats (Wallac). […] Nonspecific activity is defined as radioactivity retained on the filters following incubation of samples with buffer alone (no enzyme). Specific enzymatic activity (enzyme plus buffer) is defined as total activity minus nonspecific activity.

Chain of Cdk4/Cyclin D (P11802 whole entry, species assumed): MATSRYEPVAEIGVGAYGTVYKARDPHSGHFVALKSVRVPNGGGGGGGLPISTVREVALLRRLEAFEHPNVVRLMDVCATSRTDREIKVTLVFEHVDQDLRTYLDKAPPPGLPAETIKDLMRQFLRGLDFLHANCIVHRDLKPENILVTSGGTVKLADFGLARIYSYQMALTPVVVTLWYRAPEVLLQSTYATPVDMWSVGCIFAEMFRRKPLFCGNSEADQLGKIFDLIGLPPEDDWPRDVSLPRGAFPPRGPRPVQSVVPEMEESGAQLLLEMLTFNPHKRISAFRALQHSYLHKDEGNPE
Chain of Cdk4/Cyclin D (P24385 whole entry partner, species assumed): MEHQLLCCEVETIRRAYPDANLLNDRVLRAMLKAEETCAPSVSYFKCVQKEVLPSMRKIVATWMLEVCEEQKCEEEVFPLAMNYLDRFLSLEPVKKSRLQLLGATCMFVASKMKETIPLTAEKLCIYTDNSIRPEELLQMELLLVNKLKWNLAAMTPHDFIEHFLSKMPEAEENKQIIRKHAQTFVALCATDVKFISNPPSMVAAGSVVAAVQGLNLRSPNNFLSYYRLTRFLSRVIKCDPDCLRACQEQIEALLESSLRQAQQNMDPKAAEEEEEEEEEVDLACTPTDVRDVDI

SMILES | IC50 (Cdk4/Cyclin D) [nM] | IC50 [1] [nM]
CCc1cc2cnc(Nc3ccc(N4CCNCC4)cn3)nc2n(C2CCCC2)c1=O [Example 5, 8-Cyclopentyl-6-ethyl-2-(5-piperazin-1-yl-pyridin-2-ylamino)-8H-pyrido[2,3-d]pyrimidin-7-one hydrochloride] | 19 | 990
CCOC(=O)c1cc2cnc(Nc3ccc(N4CCNCC4)cn3)nc2n(C2CCCC2)c1=O [Example 7, 8-Cyclopentyl-7-oxo-2-(5-piperazin-1-yl-pyridin-2-ylamino)-7,8-dihydro-pyrido[2,3-d]pyrimidine-6-carboxylic acid ethyl ester hydrochloride] | 595 | –
Nc1cc2cnc(Nc3ccc(N4CCNCC4)cn3)nc2n(C2CCCC2)c1=O [Example 11, 6-Amino-8-cyclopentyl-2-(5-piperazin-1-yl-pyridin-2-ylamino)-8H-pyrido[2,3-d]pyrimidin-7-one hydrochloride] | 12 | 2120
CN1CCC[C@H]1c1ccc(Nc2ncc3cc(Br)c(=O)n(C4CCCC4)c3n2)nc1 [Example 12, 6-Bromo-8-cyclopentyl-2-[5-((S)-1-methyl-1-pyrrolidin-2-yl)-pyridin-2-ylamino]-8H-pyrido[2,3-d]pyrimidin-7-one hydrochloride] | 175 | –
O=c1c(Br)cc2cnc(Nc3ccccn3)nc2n1C1CCCCC1 [Example 13, 6-Bromo-8-cyclohexyl-2-(pyridin-2-yl-amino)-8H-pyrido[2,3-d]pyrimidin-7-one] | > 5000 | –
NC(=O)c1ccc(Nc2ncc3cc(Br)c(=O)n(C4CCCC4)c3n2)nc1 [Example 14] | 260 | –
Cc1c(Br)c(=O)n(C2CCCC2)c2nc(Nc3ccc(N4CCNCC4)cn3)ncc12 [Example 15, 6-Bromo-8-cyclopentyl-5-methyl-2-(5-piperizin-1-yl-pyridin-2-ylamino)-8H-pyrido[2,3-d]pyrimidin-7-one] | 160 | > 5000
O=c1c(F)cc2cnc(Nc3ccc(N4CCNCC4)cn3)nc2n1C1CCCC1 [Example 18, 8-Cyclopentyl-6-fluoro-2-(5-piperazin-1-yl-pyridin-2-ylamino)-8H-pyrido[2,3-d]pyrimidin-7-one hydrochloride] | 51 | –
CC(C)COc1cc2cnc(Nc3ccc(N4CCNCC4)cn3)nc2n(C2CCCC2)c1=O [Example 22, 8-Cyclopentyl-6-isobutoxy-2-(5-piperazin-1-yl-pyridin-2-ylamino)-8H-pyrido[2.3-d]pyrimidin-7-one hydrochloride] | 1700 | > 5000
O=c1c(CO)cc2cnc(Nc3ccc(N4CCNCC4)cn3)nc2n1C1CCCC1 [Example 29, 8-Cyclopentyl-6-hydroxymethyl-2-(5-piperazin-1-yl-pyridin-2-ylamino)-8H-pyrido[2,3-d]pyrimidin-7-one hydrochloride] | 13 | 4380
CC(=O)c1cc2cnc(Nc3ccc(N4CCNCC4)cn3)nc2n(C2CCCC2)c1=O [Example 33, 6-Acetyl-8-cyclopentyl-2-(5-piperazin-1-yl-pyridin-2-ylamino)-8H-pyrido[2.3-d]pyrimidin-7-one hydrochloride] | 123 | > 5000
O=c1c(Br)cc2cnc(Nc3ccccn3)nc2n1C1CCCC1 [Example 38, 6-Bromo-8-cyclopentyl-2-(Pyridin-2-ylamino)-8H-pyrido[2,3-]pyrimidin-7-one] | 950 | > 5000
CCOCCOc1cc2cnc(Nc3ccc(N4CCNCC4)cn3)nc2n(C2CCCC2)c1=O [Example 53, 8-Cyclopentyl-6-(2-ethoxy-ethoxy)-2-(5-piperazin-1-yl-pyridin-2-ylamino)-8H-pyrido[2,3-d]pyrimidin-7-one] | 36 | > 5000
CC(C)n1c(=O)ccc2cnc(Nc3ccc(N4CCNCC4)cn3)nc21 [Example 57, 8-isopropyl-2-(5-piperazin-1-yl-pyridin-2-ylamino)-8H-pyrido[2.3-d]pyrimidin-7-one] | > 5000 | > 5000
O=c1ccc2cnc(Nc3ccc(N4CCNCC4)cn3)nc2n1C1CC1 [Example 64, 8-cyclopropyl-2-(5-piperazin-1-yl-pyridin-2-ylamino)-8H-pyrido[2,3-d]pyrimidin-7-one] | 920 | 4470
CC(=O)c1c(C)c2cnc(Nc3ccc(N4CCN(C)CC4)cn3)nc2n(C2CCCC2)c1=O [Example 72, 6-Acetyl-8-cyclopentyl-5-methyl-2-[5-(4-methyl-piperazin-1-yl)-pyridin-2-ylamino]-8H-pyrido[2,3-d]pyrimidin-7-one] | 5 | –
CC(=O)c1c(C)c2cnc(Nc3ccc(N4CCC(N)C4)cn3)nc2n(C2CCCC2)c1=O (stereo not shown) [Example 74, 6-Acetyl-2-[5-(3-amino-pyrrolidin-1-yl)-pyridin-2-ylamino]-8-cyclopentyl-5-methyl-8H-pyrido[2,3-d]pyrimidin-7-one] | 14 | > 5000
Cc1c(Br)c(=O)n(C2CCCC2)c2nc(Nc3ccc(N4CCC(O)CC4)cn3)ncc12 [Example 75, 6-Bromo-8-cyclopentyl-2-(4-hydroxy-3,4,5,6-tetrahydro-2H-[1,3′]bipyridinyl-6′-ylamino)-5-methyl-8H-pyrido[2,3-d]pyrimidin-7-one] | 74 | > 5000
CC(=O)c1c(C)c2cnc(Nc3ccc(N4CCC(O)CC4)cn3)nc2n(C2CCCC2)c1=O [Example 77, 6-Acetyl-8-cyclopentyl-2-(4-hydroxy-3,4,5,6-tetrahydro-2H-[1,3′]bipyridinyl-6′-ylamino)-5-methyl-8H-pyrido[2,3-d]pyrimidin-7-one] | 19 | –
CC(=O)c1c(C)c2cnc(Nc3ccc(N4CCCNCC4)cn3)nc2n(C2CCCC2)c1=O [Example 81, 6-Acetyl-8-cyclopentyl-2-(5-[1,4]diazepan-1-yl-pyridin-2-ylamino)-5-methyl-8H-pyrido[2,3-d]pyrimidin-7-one] | 12 | > 5000
CC(=O)c1c(C)c2cnc(Nc3ccccn3)nc2n(C2CCCC2)c1=O [Example 82, 6-Acetyl-8-cyclopentyl-5-methyl-2-(pyridin-2-ylamino)-8H-pyrido[2,3-d]pyrimindin-7-one] | 440 | > 5000
Cc1cc(=O)n(C2CCCC2)c2nc(Nc3ccc(N4CCNCC4)cn3)ncc12 [Example 84, 8-Cyclopentyl-5-methyl-2-(5-piperazin-4-yl-pyridin-2-ylamino)-8H-pyrido[2,3-d]pyrimidin-7-one] | 580 | > 5000
CC(=O)c1c(C)c2cnc(Nc3ccc(N4CCNC(C)(C)C4)cn3)nc2n(C2CCCC2)c1=O [Example 90, 6-Acetyl-8-cyclopentyl-2-[5-(3,3-dimethyl-piperazin-1-yl)-pyridin-2-ylamino]-5-methyl-8H-pyrido[2,3-d]pyrimidin-7-one] | 21 | > 5000
Cc1c(Br)c(=O)n(C2CCCC2)c2nc(Nc3ccc(N4CC(C)NC(C)C4)cn3)ncc12 (stereo not shown) [Example 93, 6-Bromo-8-cyclopentyl-2-[5-(3,5-dimethyl-piperazin-1-yl)-pyridin-2-ylamino]-5-methyl-8H-pyrido[2,3-d]pyrimidin-7-one] | 63 | > 5000
CC(=O)c1c(C)c2cnc(Nc3ccc(N4CC(C)NC(C)C4)cn3)nc2n(C2CCCC2)c1=O (stereo not shown) [Example 95, 6-Acetyl-8-cyclopentyl-2-[5-(3,5-dimethyl-piperazin-1-yl)-pyridin-2-ylamino]-5-methyl-8H-pyrido[2,3-d]pyrimidin-7-one] | 37 | > 5000
Cc1c(Br)c(=O)n(C2CCCC2)c2nc(Nc3ccc(N4CCOCC4)cn3)ncc12 [Example 98, 6-Bromo-8-cyclopentyl-5-methyl-2-(5-morpholin-4-yl-pyridin-2-ylamino)-8H-pyrido[2,3-d]pyrimidin-7-one] | 1950 | > 5000
CC(=O)c1c(C)c2cnc(Nc3ccc(N4CCOCC4)cn3)nc2n(C2CCCC2)c1=O [Example 100, 6-Acetyl-8-cyclopentyl-5-methyl-2-(5-morpholin-4-yl-pyridin-2-ylamino)-8H-pyrido[2,3-d]pyrimidin-7-one] | 4 | > 5000
Cc1c(Br)c(=O)n(C2CCCC2)c2nc(Nc3ccc(N4CCCCC4)cn3)ncc12 [Example 103, 6-Bromo-8-cyclopentyl-5-methyl-2-(3,4,5,6-tetrahydro-2H-[1,3]bipyridinyl-6′-ylamino)-8H-pyrido[2,3-d]pyrimidin-7-one] | > 5000 | –
CC(=O)c1c(C)c2cnc(Nc3ccc(N4CCCCC4)cn3)nc2n(C2CCCC2)c1=O [Example 105, 6-Acetyl-8-cyclopentyl-5-methyl-2-(3,4,5,6-tetrahydro-2H-[1,3′]bipyridinyl-6′-ylamino)-8H-pyrido[2,3-d]pyrimidin-7-one] | 5 | –
